Reference: patent US9067857B2, “Fluorine-containing aromatic compound and manufacturing method therefor” (Asahi Glass Company, Limited, priority 2012, dated 2015)

Assay: Solubility test of compound in various solvents (20 mg in 10 g solvent, visually judged)
Type: physicochemical
Conditions: 20 mg sample in 10 g solvent at room temperature (0.2% by mass)
Description: <Solubility Test of Compound>
In order to investigate applicability of the compound (e) obtained in the above Example 4 to a wet process, a solubility test of the compound in various solvents was conducted. In addition, a solubility test of anthracene was also conducted as Reference Example 2.
Specifically, 20 mg of a sample was weighed and it was visually judged whether it dissolves in 10 g of a solvent at room temperature (0.2% by mass).
In Table 3, “Yes” represents “soluble” and “No” represents “insoluble”.

Compound	Solubility in 1,2-Dichlorobenzene	Solubility in Chloroform	Solubility in Cyclohexane	Solubility in Hexane
c1ccc2cc3ccccc3cc2c1 [Anthracene, anthracene]	Yes (“Yes” represents “soluble”)	Yes (“Yes” represents “soluble”)	No (“No” represents “insoluble”)	No (“No” represents “insoluble”)
FC(F)(F)C(F)(F)C(F)(F)C(F)(F)C(F)(F)C(F)(F)c1c2ccccc2c(C(F)(F)C(F)(F)C(F)(F)C(F)(F)C(F)(F)C(F)(F)F)c2ccccc12 [Compound (e), 9,10-bis(perfluorohexyl)anthracene]	Yes (“Yes” represents “soluble”)	Yes (“Yes” represents “soluble”)	Yes (“Yes” represents “soluble”)	Yes (“Yes” represents “soluble”)
